Measured values published in paper PMC7470027, “Synthesis and structure-activity relationships of novel 5-(hydroxamic acid)methyl oxazolidinone derivatives as 5-lipoxygenase inhibitors” (Journal of Enzyme Inhibition and Medicinal Chemistry, 2020).

How the values were obtained:
[1] = tested on: 5-LO product LTC4 from isolated human monocytes; test: Inhibition of 5-LO product LTC4 from isolated human monocytes (A23187); assay type: cell-based; conditions: Monocyte, calcium ionophore A23187, 95% confidence interval in brackets, read-out: Human monocyte LTC4 IC50 (CI)
Method: Mononuclear cells were first isolated from heparinised blood using the Ficoll-Hypaque gradient centrifugation method. Monocytes were subsequently purified by adherence to plastic according to standard protocols. The purity of the adherent monocytes (CD14+) was routinely confirmed by flow cytometry to be >95% and viability (by trypan blue exclusion method) was routinely >97%. Adherent monocytes were then washed and incubated in 190 µl culture medium RPMI-1640 supplemented with 100 U/ml penicillin, 100 µg/ml streptomycin and 10% heat-inactivated foetal bovine serum (Sigma-Aldrich, St Louis, MO). […] After further incubation for 15 min, the culture supernatants were recovered by centrifugation and stored at −40 °C pending LTC4 determination.
(§1) Appropriately diluted supernatants were assayed for the released products – LTs (LTB4 and LTC4), by the enzyme immunoassay (EIA) method using assay kits supplied by R&D Systems (Minneapolis, MN) and following the manufacturer’s instructions.
(§2) All data were analysed using GraphPad Prism software (GraphPad Software, San Diego, CA). […] Differences between experimental groups were first analysed by one-way ANOVA, followed by Bonferroni’s post-hoc test. A p-value of less than 0.05 was taken as statistically significant.

[2] = tested on: 5-LO-dependent generation of LTB4 from activated human whole blood; test: Inhibition of 5-LO product LTB4 from activated human whole blood (LPS/FMLP); assay type: cell-based; conditions: LPS-primed, FMLP-stimulated human whole blood; 95% confidence interval in brackets; read-out: Human whole blood LTB4 IC50 (CI)
Method: All compounds were evaluated for inhibitory activity against the 5-LO-dependent generation of LTB4 from activated human whole blood. With ethical approval from the Health Sciences Centre Ethical Committee of Kuwait University, heparinised fresh human blood samples from apparently healthy individuals of both sexes were obtained from the Kuwait Central Blood Bank. All donors gave informed consent and the work was carried out in accordance with the “Declaration of Helsinki” for experiments involving human subjects. Aliquots of 185 µl of whole blood were dispensed into each well of a 96-well culture plate containing 5 µl of the priming agent, LPS (1 µg/ml final concentration). […] After further incubation for 15 min at 37 °C, 5 µl of FMLP (1 µM final concentration) was added to stimulate LT production. The reaction was stopped 15 min later, and the supernatants were recovered by centrifugation and stored at −40 °C pending analysis of LTB4 content.
as §1, §2

recombinant human 5-LO = biological target: T1, recombinant human 5-LO (Homo sapiens, UniProt P09917); test: Direct inhibition of 5-LO activity in a cell-free assay (H2DCF-DA fluorescence); assay type: biochemical; conditions: cell-free, recombinant human 5-LO; 95% confidence interval in brackets
T1 sequence (P09917 1-674): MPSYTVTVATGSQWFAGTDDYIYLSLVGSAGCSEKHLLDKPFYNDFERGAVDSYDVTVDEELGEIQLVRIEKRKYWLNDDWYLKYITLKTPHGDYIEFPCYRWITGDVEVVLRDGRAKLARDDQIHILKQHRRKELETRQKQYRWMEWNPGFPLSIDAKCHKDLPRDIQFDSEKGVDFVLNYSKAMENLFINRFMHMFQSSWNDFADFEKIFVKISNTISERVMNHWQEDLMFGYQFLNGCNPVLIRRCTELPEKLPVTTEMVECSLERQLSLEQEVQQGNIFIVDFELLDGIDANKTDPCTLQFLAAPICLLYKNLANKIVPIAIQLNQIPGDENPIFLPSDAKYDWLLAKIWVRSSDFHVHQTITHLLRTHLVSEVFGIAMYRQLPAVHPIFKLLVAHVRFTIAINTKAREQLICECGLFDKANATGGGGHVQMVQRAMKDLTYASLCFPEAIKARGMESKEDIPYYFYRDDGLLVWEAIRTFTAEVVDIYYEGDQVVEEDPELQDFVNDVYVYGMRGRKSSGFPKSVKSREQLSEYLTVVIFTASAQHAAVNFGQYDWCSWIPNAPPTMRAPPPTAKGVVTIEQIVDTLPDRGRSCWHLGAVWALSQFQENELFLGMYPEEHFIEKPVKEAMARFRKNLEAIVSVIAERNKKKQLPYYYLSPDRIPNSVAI
Method: The assay was based on the oxidation of the dye 2′,7′-dichlorodihydrofluorescein diacetate (H2DCF-DA) to a highly fluorescent product by 5-LO enzymatic products. H2DCF-DA (60 µM) was first pre-cleaved by incubating with 450 mU/ml recombinant human 5-LO enzyme in Tris buffer (containing 50 mM Tris, pH = 7.5, 2 mM EDTA, 2 mM CaCl2, 1 mM DTT and 0.6 U/ml glutathione peroxidase) for 10 min at room temperature. […] After 10 min incubation at room temperature, the reaction was started with the addition of 50 µl of substrate solution (Tris buffer containing 20 µM ATP and 20 µM arachidonic acid (AA). After a further 20 min, the reaction was terminated with 100 µl acetonitrile. Fluorescence was read at 500 nm excitation and 520 nm emission, with Novostar^R microplate reader (BMG Labtech, Offenburg, Germany). Appropriate controls, including 100 µM nordihydroguaiaretic acid (NDGA), were included to isolate only the 5-LO-attributable, NDGA-inhibitable RFU values.
as §2

[3] = tested on: 5-LO product LTC4 from allergen/IgE-activated bone marrow-derived mouse mast cells (BMMC); test: Inhibition of 5-LO product LTC4 from allergen/IgE-activated bone marrow-derived mouse mast cells (BMMC); assay type: cell-based; conditions: Mus musculus; anti-DNP IgE/DNP-BSA-activated BMMC; 95% confidence interval in brackets; read-out: Mouse mast cell LTC4 IC50 (CI)
Method: Bone marrow-derived mast cells (BMMC) were generated from pathogen-free 5 to 7-weeks-old male Balb/c mice according to the method of Davis et al.[28]. Essentially, bone marrow cells were obtained by flushing the femoral bone marrow and the recovered cells cultured in RPMI 1640 medium supplemented with 10% FBS, 100 U/ml penicillin, and 100 µg/ml streptomycin, 25 mM HEPES, 1.0 mM sodium pyruvate, 0.1 mM nonessential amino acids, 0.0035% 2-mercaptoethanol, and 30 ng/ml mouse recombinant IL-3, with culture medium, replaced every 2 days. Cells were used after 4–8 weeks of culture, by which time at least 97% of the cells would have differentiated into mast cells, as routinely obtained in our laboratory.
The generated BMMCs were seeded at 5 × 10^4 cells/well in a 96-well flat-bottom culture plate and passively sensitised overnight with 0.5 µg/ml anti-DNP monoclonal IgE antibody. The cells were then washed twice to remove any unbound antibody and subsequently resuspended in reaction buffer (135 mM NaCl, 5 mM KCl, 1.8 mM CaCl2, 1 mM MgCl2, 5.6 mM glucose, 0.05% BSA and 20 mM HEPES, pH 7.4). They were then pre-incubated with the test compounds (0.001 − 30 μM) or the solvent (0.05% DMSO) for 15 min before being stimulated with the specific antigen, DNP-BSA (10–30 ng/ml). After 30 min incubation at 37 °C, the amount of LTC4 released into the supernatant was determined by ELISA as described below.
as §1, §2

Compound `CCCCCCC(=O)N(O)C[C@H]1CN(c2ccc(N3CCOCC3)c(F)c2)C(=O)O1` [PH-249, (R)-N-((3-(3-fluoro-4-morpholinophenyl)-2-oxooxazolidin-5-yl)methyl)-N-hydroxyheptanamide] has an IC50 [1] of 900 nM, an IC50 [2] of 700 nM and an IC50 (recombinant human 5-LO) of 1900 nM. It also gave an IC50 [3] of 1300 nM.
